Laboratory results published in US12048764B2, “Levodopa infusion solution” (DIZLIN PHARMACEUTICALS AB, priority 2017, dated 2024).

Tests used:
[1] = Preliminary patient trial: s.c./i.v. infusion versus intestinal Duodopa, plasma levodopa and carbidopa; assay type: in vivo, patients with Parkinson's disease
Excerpt: The trial results are from 3 randomly selected patients of a larger study, and for each patient subcutaneous, intravenous injection and intestinal administration was compared.
The study was a prospective, randomized, 3-period cross-over, open-label multicentre trial comparing intravenous and subcutaneous infusion of the preferred aqueous pharmaceutical solution with intestinal Duodopa (LCIG) performed according to the principles of Good Clinical Practice (GCP). The trial included patients with Parkinson's disease who are on Duodopa treatment because of severe on-off manifestation when on oral levodopa. During one treatment visit, patients receive Duodopa at optimal dosage for 16 hours, during another treatment visit, the patients received an i.v. infusion of the preferred aqueous pharmaceutical solution at a concentration estimated to yield corresponding serum levels of levodopa for the same duration, and at a third treatment visit the patients received the corresponding amount of levodopa but in the form of s.c. infusion. Blood samples were drawn according to a set schedule during the treatment visits for up to 24 h. […]
Levodopa and carbidopa in patient's plasma was analysed by ultra-performance liquid chromatography-tandem mass spectrometry (UPLC-MS/MS) according to the principles of Good Laboratory Practice (GLP).

[2] = cited from earlier work

## N[C@@H](Cc1ccc(O)c(O)c1)C(=O)O [levodopa]
[1]; patient no 101, severe PD
  levodopa concentration in the blood required for therapeutic effect: 5,000-6,000 ng/mL
[1]; patient no 103, moderate or mild PD
  levodopa concentration in the blood required for therapeutic effect: 1,600-1,700 ng/mL
[2]; pH values acceptable for continuous parenteral administration
  concentration above which levodopa precipitates: 0.5 to 1.0 mg/mL
[2]; pH<3 or pH>9
  levodopa concentration obtainable: exceeding 5 mg/ml
